Melting point data for 88 compounds are collected here from a melting point compilation (Tetko et al.; mined from patent text by program, amines drawn as free bases though some values may be those of a salt).

As usually defined, the melting point is the temperature of the solid-liquid transition.

As for `O=C(O)Cc1ccccc1SCc1cc(F)ccc1F`, the melting point was 106 to 108 °C.
Under `CCc1cc(C(=O)O)c(S(N)(=O)=O)o1` stands 186 °C; under `O=C1C(=Cc2c(Cl)cccc2Cl)CCc2ccccc21`, 73.8 to 75.6 °C.
Under `CC(C)COc1cc(O)c2c(c1)OC(C)(C)CC2=O` stands 77 to 79 °C; under `COc1ccc(C#Cc2cc(Cl)cc3c2OC(C(F)(F)F)C(C(=O)O)=C3)cc1` (stereo not drawn), 218 to 219 °C; under `CS(=O)(=O)N1CCN(c2n[nH]c(-c3ccc(Cl)cc3)c2-c2ccncc2)CC1`, 245 to 248 °C.
The figure for `CCn1nc(C)c2nc(C)nc(NCCO)c21` is 166 to 168 °C.
Compound `COc1cc(CNC(=O)c2nc3scc(COCc4ccc(C(=O)O)cc4)c3c(=O)[nH]2)ccc1F` yielded a melting point of 225 to 226 °C.
The figure for `O=C(Nc1cc([N+](=O)[O-])ccc1F)C(F)(F)F` is 112 to 113 °C; for `Nc1sc2c(c1C(=O)c1ccc(I)c3ccccc13)CCCC2` it is 180 to 182 °C; for `COc1ccc(/C=C(\C#N)c2c(Cl)cccc2Cl)cc1OC1CCCC1` it is 164 to 166 °C.
For the compound `Cc1c(C)c([N+](=O)[O-])c(C)c2c1OC(C)(C)C2c1ccc(F)cc1` (stereo not drawn), the melting point lay in the range of 94 to 95 °C.
The figure for `CC(C)(C)OC(=O)N1CC[C@H](c2ccc3c(c2)OCO3)[C@@H](OCc2ccc3ccccc3c2)C1` (racemic) is 128 to 129 °C; for `Cc1cc(C(=O)CC(O)(c2cc(Cl)cc(Cl)c2)C(F)(F)F)ccc1Br` (stereo not drawn) it is 141 to 142 °C; for `COC(=O)c1ccc(=O)n(CCN(C)C(=O)c2cccnc2)c1` it is 120 to 122 °C.
The figure for `O=C(O)c1cnc(Nc2ccccc2O)[nH]c1=O` is 254 to 256 °C; for `CN(C)C=Nc1sc(C=Nc2ccccc2)c(Cl)c1C#N` it is 174 °C; for `Clc1nc(NCc2cccc(I)c2)c2[nH]cnc2n1` it is 222 to 224 °C.
As to `Cc1nc2ccc([N+](=O)[O-])cn2c(=O)c1CCCl`, the melting point was determined as 170 °C.
The figure for `CCOC(=O)C1=C(C)NC(C)=C(C(=O)OC)C1c1cccc2c(=O)c(C)c(-c3ccccc3)oc12` (stereo not drawn) is 226 to 228 °C; for `COCCNC(=O)Nc1ccc([N+](=O)[O-])cc1O` it is 190 to 191 °C; for `COCC1CN(c2ccc3cc(OCc4ccccc4)ccc3c2)C(=O)O1` (stereo not drawn) it is 150 °C.
Under `C=CCn1c(C)c(C)c2cnnc(CCc3ccc(F)cc3)c21` stands 123 to 124 °C; under `CCOc1ccc(C(=O)c2c(N)sc3c2CCN(C(=O)OCc2ccccc2)C3)cc1`, 197 to 198 °C; under `Cc1nc(N2CCN(Cc3ccc(F)cc3)C2=O)sc1-c1cc[nH]n1`, 239 to 242 °C.
Compound `CCC(CC)n1nnc2c([N+](=O)[O-])cccc21` showed a melting point of 129 to 132 °C.
The figure for `CN(Cc1cccc(-c2ccc(CC3SC(=O)NC3=O)cc2)c1)C(=O)CCCCC(=O)c1ccccc1` (stereo not drawn) is 48 °C; for `COc1c(C)c(Cl)c(C)c(Cl)c1CNC(=O)CCl` it is 205 to 206 °C; for `N#CCOc1cc(Cl)c2c(=O)c(-c3ccccc3Cl)coc2c1` it is 174 to 175 °C.
The figure for `CCOC(=O)C(C)c1ccc(NC(C)=O)cc1` (stereo not drawn) is 94.5 to 95.5 °C.
The compound `C=C1N(CCCC)C(=O)OC12CCN(CCC=C(c1ccc(Cl)cc1)c1ccc(Cl)cc1)CC2` had a melting point of 110 to 111 °C.
Under `O=C(Cn1cc(-c2ccc3nnn(Cc4ccc5ncccc5c4)c3n2)cn1)N1CCCC1` stands 136 to 138 °C; under `CC(C)(C)[Si](C)(C)O[C@H]1CCNC1=O`, 48 to 49 °C.
Compound `Cc1cc(N2CCCC(O)C2)c(S(C)(=O)=O)cc1C(=O)N=C(N)N` (stereo not drawn) yielded a melting point of 194 to 196 °C.
Under `N#Cc1cccc2c(Cl)ccc([N+](=O)[O-])c12` stands 210 to 212 °C; under `NC(=O)c1cc2n(n1)-c1ccc(Cl)cc1C(c1ccccc1)=NC2`, 216 to 218 °C; under `O=C1CCC(c2ccc(NC(=O)C3CC3(Cl)Cl)cc2)=NN1` (stereo not drawn), 267 to 268 °C.
The figure for `Cc1ccc([N+](=O)[O-])cc1Nc1cccc(Br)c1` is 114 to 116 °C; for `CCOC(=O)C1=C(C)NC(C)=C([N+](=O)[O-])C1c1cccc(Cl)c1` (stereo not drawn) it is 168 °C.
Under `CCN1C(=O)C2CCCN2Cc2ccccc21` (stereo not drawn) stands 138 to 140 °C.
Compound `CC(C)c1cc2nc(N)[nH]c(=O)c2cc1-c1ccc(Cl)cc1` returned a melting point of 326 to 330 °C.
Under `OC1CSC(Oc2ccc(-c3ccoc3)cc2F)C(O)C1O` (stereo not drawn) stands 155 °C.
The figure for `CCOC(=O)c1ccc(CCN2CCN(CCCS(=O)(=O)O)CC2)cc1` is 235 to 236 °C; for `CCOC(=O)C(C)(C)Oc1ccc(C#CC(=O)c2ccc(Cl)cc2)cc1` it is 68 to 70 °C.
Under `OCC1(CN(Cc2ccccc2)Cc2ccccc2)CCN(Cc2ccccc2)C1` (stereo not drawn) stands 65 to 67 °C; under `CN(C)C(=O)Oc1ccc(CO)cc1`, 76 °C.
The compound `O=C(O)[C@@H]1[C@H](C(=O)O)N(Cc2ccccc2)C(=O)N1Cc1ccccc1` displayed a melting point of 173 °C.
For the compound `CCOC(=O)c1[nH]c(C)c(C)c1CC(C)C`, the melting point is 109 to 111 °C.
The figure for `CCCCCCCNC(=O)Nc1ccccc1C(=O)Nc1ccc(CCCCCCC)cc1` is 155 to 157 °C; for `C=CCn1c(=O)n(CCN2CCN(c3ccccc3OC)CC2)c(=O)c2cscc21` it is 131 to 132 °C; for `N#Cc1c(N2CCN(C(=O)c3ccco3)CC2)c2cc(Cl)cnc2n(CC(=O)c2ccccc2)c1=O` it is 328 °C.
In turn, `COc1cc(OCc2ccccn2)ccc1/C=C/c1cc(/C=C/c2cc([N+](=O)[O-])c3cc[nH]c3c2)[nH]n1` returned a melting point of 125 to 131 °C.
Regarding `O=C(OCC1CC1)c1ncn2c1[C@@H]1CCCN1C(=O)c1c(Cl)cccc1-2`, the melting point fell in the range of 195 to 196 °C.
Turning to `COc1cc(C(=O)O)ccc1Cn1ccc2ccc(CC(=O)NCC3CCCC3)cc21`, the melting point was 188 to 189 °C.
The figure for `COc1ccc(OC)c2c(=O)c3ccccc3sc12` is 201 to 202 °C; for `CCN(C(C)=O)c1cccc(-c2ccc(Cl)nn2)c1` it is 116 to 119 °C; for `COc1ccc(CC(C)NCC(O)c2cccc(F)c2)cc1` (stereo not drawn) it is 85 to 89 °C.
The figure for `O=C(N[C@@H](Cc1ccc(OCc2ccccc2)cc1)C(=O)O)c1cn2cc(/C=C/c3ccccc3)ccc2n1` is 262 to 263 °C; for `CCOC(=O)c1c2n(c3c(Cl)c(N4CCC(N(C)C)C4)c(F)cc3c1=O)C(C)S2` (stereo not drawn) it is 131 to 133 °C; for `O=S1(=O)c2cccc3cccc(c23)N1CCN1CCC(Cc2c[nH]c3ccccc23)CC1` it is 184 °C.
Under `COc1ccc(S(=O)(=O)N(Cc2cccnc2)c2c(C(=O)O)cc(C)cc2-c2cccs2)cc1` stands 67 °C; under `COc1cccc(C2(c3cccc(OC)c3)CC2C=CC(=O)NC(C)CCCc2ccncc2)c1` (single isomer, unassigned), 104 to 106 °C.
Compound `FC(F)(F)c1nc(-c2ccccc2)c(-c2ccccc2)c(N2CCN(c3ccccn3)CC2)n1` showed a melting point of 165 to 167 °C.
In turn, `CCN(CC)CCNC(=O)c1cccc2c(=O)c(C)c(-c3ccc(OC)cc3)oc12` gave a melting point of 126 to 127 °C.
The figure for `Cc1cc(C)c2ncc(Br)n2n1` is 137 to 139 °C; for `CC(C)n1nc(-c2c(-c3ccccc3)nn3ccc(OCc4ccccn4)cc23)ccc1=O` it is 150 to 151 °C.
The figure for `CCCCCCCNC(=O)Nc1ccccc1C(=O)NCC1CCN(C(c2ccccc2)c2ccccc2)CC1` is 146 to 148 °C; for `COc1ccccc1N1CCN(C[C@@H](C)N(C(=O)c2ccccc2)C(=O)c2ccccc2)CC1` it is 115 to 120 °C.
As to `NS(=O)(=O)c1ccc(Nc2nc(OCC3CCCCC3)c3[nH]cnc3n2)cc1`, the melting point was 152 to 154 °C.
Under `O=C(O)CCC(=O)c1ccc(-c2ccc(Cl)c(Cl)c2)cc1` stands 154 to 156 °C.
The figure for `CC(=O)Nc1ccc(C#N)cc1F` is 170 to 172 °C; for `CCOC(=O)c1ccc([N+](=O)[O-])cc1F` it is 70 to 73 °C; for `O=c1[nH]c2ccc(N3CCN(Cc4ccccc4)CC3)cc2c(=O)o1` it is 235 °C.
Under `[N-]=[N+]=NCc1cc(Cl)c(C(=O)c2ccc(Cl)cc2)c(Cl)c1` stands 50 to 55 °C; under `O=C(NO)c1ccc2c(c1)CN(C(=O)c1ccc3[nH]ccc3c1)CC2`, 252 °C; under `CCCCCCCC(=O)c1ccc(CCC(CC)(COC(C)=O)NC(C)=O)cc1` (stereo not drawn), 75 to 76 °C.
The compound `COC(=O)CCCc1ccc(C(=O)CCCc2ccccc2)cc1` came in with a melting point of 61 to 62 °C.
Under `COC(=O)C(C#N)=Cc1cc(OC)c(OC)cc1[N+](=O)[O-]` stands 162 to 164 °C; under `COc1cc(O)c(CN(CCc2ccc([N+](=O)[O-])cc2)C(=O)OC(C)(C)C)c(OC)c1`, 134 °C.
Take `COc1cc(C2CCN(C[C@@H](C)O)CC2)ccc1Nc1ncc2ccc(-c3cc(Cl)ccc3OC)n2n1`: the melting point lay in the range of 94 to 108 °C.
Under `CCCCCCC(C(=O)OCC)c1ccc(NC(=O)C2c3ccccc3-c3ccccc32)cc1` (stereo not drawn) stands 174 to 175 °C; under `CN(C)CCC(=O)Nc1cccc(NC(=O)Nc2ccc(N(CCCl)CCCl)cc2)c1`, 88 to 90 °C.
Under `COc1cc2ncnc(N3CCN(C(=S)Nc4cc(C)cs4)CC3)c2cc1OC` stands 214 to 216 °C.
With `COc1ccc2c(c1)N(CCNC(C)=O)CCO2`, the melting point lay in the range of 107 to 108 °C.
Under `CCOC(=O)CCc1cc2c(c(Br)c1Br)OCC2` stands 42 to 43 °C; under `N#Cc1cnc2sc(-c3ccc(C=O)cc3)cc2c1Nc1cccc2[nH]ccc12`, above 245 °C; under `C=CCSc1nc(-c2ccc(OC)cc2)c(-c2ccc(OC)cc2)s1`, 57 to 58 °C.
The compound `CC#CN(C)c1nc2ccccc2s1` gave a melting point of 58 to 59 °C.
